System: Plasmodium berghei
Assay: Luciferase/luciferin-expressing antifolate-resistant parasites were used to infect a culture of HepG2 cells that were pre-incubated with compounds. Infected hepatocytes emit light due to the luciferase reaction. Assay results are presented as the percent inhibition of light emission compared to control. […]
Type: functional
Conditions: sporozoite; for IC90: read-out: LUCIFERASE INFECTION ASSAY - IC90

## N=C(NS(=O)(=O)c1cc(C(F)(F)F)cc(C(F)(F)F)c1)c1ccc(Cl)cc1
HEPG2TOX_HILL_SLOPE 0.0636, HEPG2TOX_R_SQUARED 0.0519, read-out: LUCIFERASE INFECTION ASSAY - IC50
  IC50: > 7.66 µM
  IC90: > 7.66 µM

## Cc1ncc(CO)c(/C=N/NC(=S)Nc2ccc(C(C)C)cc2)c1O
HEPG2TOX_HILL_SLOPE 0.0695, HEPG2TOX_R_SQUARED 0.0364, read-out: LUCIFERASE INFECTION ASSAY - IC50
  IC50: > 10 µM
  IC90: > 10 µM

## COc1ccc(C(N)c2csc(NC(=O)c3cc(C(C)(C)C)nn3Cc3ccccc3)n2)cc1 (stereo unspecified)
HEPG2TOX_HILL_SLOPE 0.0688, HEPG2TOX_R_SQUARED 0.351, PBLUC_HILL_SLOPE 6.29, PBLUC_R_SQUARED 0.765, read-out: LUCIFERASE INFECTION ASSAY - IC50
  IC50: 3.43 µM
  IC90: 4.86 µM

## CCN(C(=O)CN(Cc1ccccc1)S(=O)(=O)/C=C/c1ccccc1)c1cccc2ccccc12
HEPG2TOX_HILL_SLOPE 0.0751, HEPG2TOX_R_SQUARED 0.254, read-out: LUCIFERASE INFECTION ASSAY - IC50
  IC50: > 10 µM
  IC90: > 10 µM

## COCC(C)n1c(C)cc(C(=O)COC(=O)c2cccc(C)c2C)c1C (stereo unspecified)
HEPG2TOX_HILL_SLOPE 0.0806, HEPG2TOX_R_SQUARED 0.082, PBLUC_HILL_SLOPE 4.05, PBLUC_R_SQUARED 0.617, read-out: LUCIFERASE INFECTION ASSAY - IC50
  IC50: 4.04 µM
  IC90: 6.95 µM

## Cc1cc(C(=O)COC(=O)c2ccccc2OCc2ccccc2Cl)c(C)n1CC1CCCO1 (stereo unspecified)
HEPG2TOX_HILL_SLOPE 0.0867, HEPG2TOX_R_SQUARED 0.214, read-out: LUCIFERASE INFECTION ASSAY - IC50
  IC50: > 10 µM
  IC90: > 10 µM

## CC(C)[C@H](NC(=O)c1ccc(Cl)cc1)C(=O)OCC(=O)NCCc1ccc(S(N)(=O)=O)cc1
HEPG2TOX_HILL_SLOPE 0.118, HEPG2TOX_R_SQUARED 0.186, PBLUC_HILL_SLOPE 0.264, PBLUC_R_SQUARED 0.0178, read-out: LUCIFERASE INFECTION ASSAY - IC50
  IC50: > 10 µM
  IC90: > 10 µM

## CNc1snc(C)c1C(=O)N(C)Cc1ccc(OC(F)(F)F)cc1
HEPG2TOX_HILL_SLOPE 0.114, HEPG2TOX_R_SQUARED 0.0245, PBLUC_HILL_SLOPE 2.54, PBLUC_R_SQUARED 0.592, read-out: LUCIFERASE INFECTION ASSAY - IC50
  IC50: 1.15 µM
  IC90: 2.72 µM

## Cn1ccc2cc(-c3cnc4cnc(-c5ccc(C(=O)N6CCOCC6)cc5)cn34)ccc21
HEPG2TOX_HILL_SLOPE 0.0832, HEPG2TOX_R_SQUARED 0.45, PBLUC_HILL_SLOPE 3.74, PBLUC_R_SQUARED 0.552, read-out: LUCIFERASE INFECTION ASSAY - IC50
  IC50: 5.41 µM
  IC90: > 7.54 µM

## Cc1cc(C)c(NC(=O)CN(C)C2CC(=O)N(C)C2=O)c(C)c1 (stereo unspecified)
HEPG2TOX_HILL_SLOPE 0.116, HEPG2TOX_R_SQUARED 0.0867, read-out: LUCIFERASE INFECTION ASSAY - IC50
  IC50: > 10 µM
  IC90: > 10 µM

## Cc1ccc2nc(NC(=O)C3CCCCC3)c(C(=O)NC3CCCCC3)n2c1
HEPG2TOX_HILL_SLOPE 0.0875, HEPG2TOX_R_SQUARED 0.133, PBLUC_HILL_SLOPE 0.199, PBLUC_R_SQUARED 0.0366, read-out: LUCIFERASE INFECTION ASSAY - IC50
  IC50: > 8.63 µM
  IC90: > 8.63 µM

## COc1ccccc1-n1c(COc2ccccc2-c2ccccc2)nnc1SC(C(=O)NC(N)=O)C(C)C (stereo unspecified)
HEPG2TOX_HILL_SLOPE 0.0773, HEPG2TOX_R_SQUARED 0.0989, read-out: LUCIFERASE INFECTION ASSAY - IC50
  IC50: > 10 µM
  IC90: > 10 µM

## OCc1ccc(-c2cn3c(-c4ccccc4)cnc3cn2)cc1
HEPG2TOX_HILL_SLOPE 0.117, HEPG2TOX_R_SQUARED 0.27, read-out: LUCIFERASE INFECTION ASSAY - IC50
  IC50: > 11 µM
  IC90: > 11 µM

## Cc1cccc(Nc2ccccc2C(=O)Oc2ccc(Cl)cc2Cc2ccccc2)c1C
HEPG2TOX_HILL_SLOPE 0.105, HEPG2TOX_R_SQUARED 0.052, read-out: LUCIFERASE INFECTION ASSAY - IC50
  IC50: > 10 µM
  IC90: > 10 µM

## CC(C)CN1CCC1(C(=O)NCc1cccc2ccccc12)c1ccccc1 (stereo unspecified)
HEPG2TOX_HILL_SLOPE 0.125, HEPG2TOX_R_SQUARED 0.379, PBLUC_HILL_SLOPE 1.82, PBLUC_R_SQUARED 0.397, read-out: LUCIFERASE INFECTION ASSAY - IC50
  IC50: 5.57 µM
  IC90: > 8.86 µM

## O=C1NC(=S)S/C1=C\c1ccc(OCc2ccc(Cl)c(Cl)c2)cc1
HEPG2TOX_HILL_SLOPE 0.0732, HEPG2TOX_R_SQUARED 0.0803, read-out: LUCIFERASE INFECTION ASSAY - IC50
  IC50: > 8.33 µM
  IC90: > 8.33 µM

## O=C(/C=C/c1ccccc1)N1CCN(S(=O)(=O)c2ccccc2C(F)(F)F)CC1
HEPG2TOX_HILL_SLOPE 0.114, HEPG2TOX_R_SQUARED 0.819, PBLUC_HILL_SLOPE 7.50, 16.5, PBLUC_R_SQUARED 0.237, 0.462, read-out: LUCIFERASE INFECTION ASSAY - IC50
  IC50: 5.45 µM
  IC90: 6.57 µM

## O=C(CN1C(=O)S/C(=C\c2ccco2)C1=O)c1ccc([N+](=O)[O-])cc1
HEPG2TOX_HILL_SLOPE 0.122, HEPG2TOX_R_SQUARED 0.0589, read-out: LUCIFERASE INFECTION ASSAY - IC50
  IC50: > 10 µM
  IC90: > 10 µM

## N#Cc1ncn(CC(=O)NCC2(N3CCOCC3)CCCCC2)n1
HEPG2TOX_HILL_SLOPE 0.0925, HEPG2TOX_R_SQUARED 0.157, read-out: LUCIFERASE INFECTION ASSAY - IC50
  IC50: > 10 µM
  IC90: > 10 µM

## Cc1cc(S(=O)(=O)c2ccc(OC(=O)CC3CCCC3)c(C)c2)ccc1OC(=O)CC1CCCC1
HEPG2TOX_HILL_SLOPE 0.0998, HEPG2TOX_R_SQUARED 0.18, PBLUC_HILL_SLOPE 0.103, PBLUC_R_SQUARED 0.0204, read-out: LUCIFERASE INFECTION ASSAY - IC50
  IC50: > 10 µM
  IC90: > 10 µM

## O=C1CC(c2c(F)cccc2Cl)CC2=Nc3ccccc3NC(c3ccc(Cl)cc3)C12 (stereo unspecified)
HEPG2TOX_HILL_SLOPE 0.118, HEPG2TOX_R_SQUARED 0.0386, read-out: LUCIFERASE INFECTION ASSAY - IC50
  IC50: > 7.28 µM
  IC90: > 7.28 µM

## O=C(NCCSCc1ccc(Cl)cc1Cl)c1cccs1
HEPG2TOX_HILL_SLOPE 0.0561, HEPG2TOX_R_SQUARED 0.0467, PBLUC_HILL_SLOPE 2.24, PBLUC_R_SQUARED 0.817, read-out: LUCIFERASE INFECTION ASSAY - IC50
  IC50: 1.32 µM
  IC90: 3.51 µM

## Cc1cccc(C(C)C)c1NC(=O)C(C)Sc1nc2scc(-c3ccccc3Cl)c2c(=O)n1C (stereo unspecified)
HEPG2TOX_HILL_SLOPE 0.0632, HEPG2TOX_R_SQUARED 0.325, PBLUC_HILL_SLOPE 16, PBLUC_R_SQUARED 0.687, read-out: LUCIFERASE INFECTION ASSAY - IC50
  IC50: 1.03 µM
  IC90: 1.19 µM

## O=C(Nc1cccc(C(F)(F)F)c1)n1nccc1-c1cc(-c2ccccc2)no1
HEPG2TOX_HILL_SLOPE 0.0838, HEPG2TOX_R_SQUARED 0.0659, PBLUC_HILL_SLOPE 13.2, PBLUC_R_SQUARED 0.221, read-out: LUCIFERASE INFECTION ASSAY - IC50
  IC50: 2.81 µM
  IC90: 3.32 µM

## CCOc1c(Br)cnn(-c2ccc(C)cc2)c1=O
HEPG2TOX_HILL_SLOPE 0.0619, HEPG2TOX_R_SQUARED 0.0842, PBLUC_HILL_SLOPE 9.69, PBLUC_R_SQUARED 0.342, read-out: LUCIFERASE INFECTION ASSAY - IC50
  IC50: > 10.7 µM
  IC90: > 10.7 µM

## CC1CCCC(N=C2NN=C(c3c[nH]c(C(=O)N4CCCC4)c3)CS2)C1C (stereo unspecified)
HEPG2TOX_HILL_SLOPE 0.0793, HEPG2TOX_R_SQUARED 0.0179, read-out: LUCIFERASE INFECTION ASSAY - IC50
  IC50: > 10 µM
  IC90: > 10 µM

## Cc1ccc(Cn2ncc3c(C(=O)N4CCN(c5ncccn5)CC4)cc(C)nc32)cc1
HEPG2TOX_HILL_SLOPE 0.12, HEPG2TOX_R_SQUARED 0.204, PBLUC_HILL_SLOPE 1.61, PBLUC_R_SQUARED 0.516, read-out: LUCIFERASE INFECTION ASSAY - IC50
  IC50: 8.29 µM
  IC90: > 10 µM

## COc1ccccc1-c1ccc2ncc(-c3cccnc3)n2n1
HEPG2TOX_HILL_SLOPE 0.11, HEPG2TOX_R_SQUARED 0.0747, PBLUC_HILL_SLOPE 11.9, PBLUC_R_SQUARED 0.526, read-out: LUCIFERASE INFECTION ASSAY - IC50
  IC50: 3.67 µM
  IC90: 4.41 µM

## COc1ccc(CN2CCN(c3nc4c(Cl)c(C)nn4c4ccccc34)CC2)cc1OC
HEPG2TOX_HILL_SLOPE 0.0984, HEPG2TOX_R_SQUARED 0.313, PBLUC_HILL_SLOPE 1.53, PBLUC_R_SQUARED 0.0755, read-out: LUCIFERASE INFECTION ASSAY - IC50
  IC50: > 10 µM
  IC90: > 10 µM

## Cc1ccc(N(CC(=O)Nc2ccc(Cl)cc2)S(C)(=O)=O)cc1Cl
HEPG2TOX_HILL_SLOPE 0.0682, HEPG2TOX_R_SQUARED 0.0747, PBLUC_HILL_SLOPE 6.57, PBLUC_R_SQUARED 0.017, read-out: LUCIFERASE INFECTION ASSAY - IC50
  IC50: > 8.52 µM
  IC90: > 8.52 µM

## O=C(COc1ccc(F)cc1C(=O)c1cnn(-c2ccccc2)c1)Nc1ccc(Br)cc1F
HEPG2TOX_HILL_SLOPE 0.0675, HEPG2TOX_R_SQUARED 0.0289, PBLUC_HILL_SLOPE 1.95, PBLUC_R_SQUARED 0.148, read-out: LUCIFERASE INFECTION ASSAY - IC50
  IC50: > 10 µM
  IC90: > 10 µM

## O=C(CC1Sc2ccccc2NC1=O)NCCCn1ccc2ccccc21 (stereo unspecified)
HEPG2TOX_HILL_SLOPE 0.0908, HEPG2TOX_R_SQUARED 0.322, PBLUC_HILL_SLOPE 2.29, PBLUC_R_SQUARED 0.881, read-out: LUCIFERASE INFECTION ASSAY - IC50
  IC50: 1.33 µM
  IC90: 3.47 µM

## Cc1nc(NCc2ccc(Cl)cc2)c2cc(-c3ccccc3)sc2n1
HEPG2TOX_HILL_SLOPE 0.0996, HEPG2TOX_R_SQUARED 0.0438, PBLUC_HILL_SLOPE 16.2, PBLUC_R_SQUARED 0.0193, read-out: LUCIFERASE INFECTION ASSAY - IC50
  IC50: 9.43 µM
  IC90: > 10 µM
